Here are results for one compound from patent US20230364230A1, “COMBINATION THERAPY FOR CANCER” (ENGMAB SÀRL, priority 2020, published 2023).

This experiment deals with H929 target cells. As to the kind of experiment: Protein 1 induced ADCC after pretreatment of both PBMC and H929 target cells. Type of experiment: cell-based, human. As to the method: PBMCs from a healthy donor were pre-incubated for 48 hours in the presence of CC-92480 or CC-220 (iberdomide) or a DMSO control. Additionally, H929 cells were also pre-incubated separately from the PBMCs for 48 hours with CELMoD. For CC-92480, PBMC and H929 were incubated in 0.1 nM, 1 nM or 10 nM concentrations. For CC-220, cells were incubated in 1 nM or 10 nM concentrations. Cells were also pre-incubated in with a DMSO control. After pretreatment, PBMC and H929 were combined based on their matched treatments and incubated for an additional 18 hours or overnight in the presence of a dose range of Protein 1, 0 nM to 10 nM. Samples were analyzed via flow cytometry for H929 depletion. Specific lysis was calculated as following: (1−((test sample H929 count)/(H929 count in DMSO control without PBMC and without Protein 1)))*100. PBMC and H929 cells were pretreated separately with varying doses of CC-92480 (FIG. 14A) or CC-220 (FIG. 14B) or a DMSO control for 48 hours. After pretreatment, PBMCs and H929 target cells were combined and co-cultured overnight with a dose range of Protein 1 at 0 nM to 10 nM. H929 cell depletion was analyzed by flow cytometry. […] Pretreatment of both PBMC and H929 target cells with CC-92480 or CC-220 (iberdomide) enhanced Protein 1 induced ADCC.

With `O=C1CC[C@H](N2Cc3c(OCc4ccc(CN5CCOCC5)cc4)cccc3C2=O)C(=O)N1` [CC-220, (S)-3-(4-((4-(Morpholinomethyl)benzyl)oxy)-1-oxoisoindolin-2-yl)piperidine-2,6-dione], for the setting “H929 target cells pretreated 48 hours, most notably at Protein 1 0.01-0.1 nM”, the “susceptibility of H929 target cells to lysis” value was “more susceptible to lysis”. Where the note is “PBMC and H929 pretreated separately 48 hours, Protein 1 0 nM to 10 nM”, the “Protein 1 induced ADCC (H929 cell depletion)” value is listed as “enhanced”.
